In patent US8242280B2, “Fused ring heterocycle kinase modulators” (SGX Pharmaceuticals, Inc., priority 2007, dated 2012):

Key:
[1] = biological target: T1, unphosphorylated T315I Abl kinase domain (Mus musculus, UniProt P00520, T315I); assay: c-Abl T315I 0P bioassay (pyruvate kinase/lactate dehydrogenase coupled enzyme assay); assay type: biochemical; conditions: zero phosphorylation state (0P), 10 μM ATP, read-out: AbI T315I 0P IC50
T1 construct: purified and unphosphorylated T315I Abl kinase domain; made in house; host or cells: E. coli BL21(DE3) (Codon+RIL or pSA0145 strain)
T1 sequence (P00520 242-493 T315I limits assumed): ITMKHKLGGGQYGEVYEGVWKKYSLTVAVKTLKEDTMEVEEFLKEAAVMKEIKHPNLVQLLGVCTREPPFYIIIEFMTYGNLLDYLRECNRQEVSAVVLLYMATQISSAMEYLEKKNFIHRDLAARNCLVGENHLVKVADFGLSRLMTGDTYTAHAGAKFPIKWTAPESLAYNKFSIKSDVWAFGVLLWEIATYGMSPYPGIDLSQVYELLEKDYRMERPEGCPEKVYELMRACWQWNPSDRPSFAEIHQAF

Ba/F3 cells, ABL1 WT = Ba/F3 cells, ABL1 WT (Homo sapiens, UniProt P00519); assay: 96-well XTT cell survival assay, Ba/F3 ABL1 WT; assay type: cell-based; conditions: 72 hours, read-out: ABL1 WT XTT [Ba/F3] IC50
Summary of the method: (§1)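 Ba/F3 cells carrying wild-type or T315I ABL1 were seeded at 5000-8000 per well with graded compound concentrations in duplicate and grown 72 hours at 37° C. Survival was read by XTT/PMS reduction after a further 2-6 h, as absorbance at 405 nm with 650 nm background correction.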

Ba/F3 cells, ABL1 T315I = Ba/F3 cells, ABL1 T315I (Homo sapiens, UniProt P00519, T315I, cells depend on it); assay: 96-well XTT cell survival assay, Ba/F3 ABL1 T315I; assay type: cell-based; conditions: 72 hours, read-out: ABL1 T315I XTT [Ba/F3] IC50
Summary of the method: as §1

Structure (SMILES) | IC50 [1] | GI50 (Ba/F3 cells, ABL1 WT) | GI50 (Ba/F3 cells, ABL1 T315I)
CN(C)C(=O)C(O)c1cncc(-c2cnc3[nH]cc(-c4cncnc4)c3c2)c1 (stereo not drawn) | > 0.5 µM | > 1 µM | > 1 µM
CC(=O)c1ccccc1-c1c[nH]c2ncc(-c3cncc(C(O)C(=O)N(C)C)c3)cc12 (stereo not drawn) | 0.05 to 0.5 µM | > 1 µM | > 1 µM
CN(C)C(=O)C(O)c1cncc(-c2cnc3[nH]cc(-c4ccc(C#N)cc4)c3c2)c1 (stereo not drawn) | 0.05 to 0.5 µM | > 1 µM | > 1 µM
CN(C)C(=O)C(O)c1cncc(-c2cnc3[nH]cc(-c4ccc(OC(F)(F)F)cc4)c3c2)c1 (stereo not drawn) | 0.05 to 0.5 µM | > 1 µM | > 1 µM
CN(C)C(=O)C(O)c1cncc(-c2cnc3[nH]cc(-c4ccncc4)c3c2)c1 (stereo not drawn) | 0.05 to 0.5 µM | > 1 µM | > 1 µM
CN(C)C(=O)C(O)c1cncc(-c2cnc3[nH]cc(-c4cccc(S(C)(=O)=O)c4)c3c2)c1 (stereo not drawn) | > 0.5 µM | > 1 µM | > 1 µM
CN(C)C(=O)C(O)c1cncc(-c2cnc3[nH]cc(-c4cccnc4)c3c2)c1 (stereo not drawn) | 0.05 to 0.5 µM | > 1 µM | > 1 µM
CN(C)C(=O)C(O)c1cncc(-c2cnc3[nH]cc(-c4ccc(N(C)C)cc4)c3c2)c1 (stereo not drawn) | 0.05 to 0.5 µM | > 1 µM | > 1 µM
CN(C)C(=O)C(O)c1cncc(-c2cnc3[nH]cc(-c4cccc5c4OC(F)(F)O5)c3c2)c1 (stereo not drawn) | < 0.05 µM | < 1 µM | > 1 µM
CN(C)C(=O)C(O)c1cncc(-c2cnc3[nH]cc(-c4ccn[nH]4)c3c2)c1 (stereo not drawn) | < 0.05 µM | > 1 µM | > 1 µM
CN(C)C(=O)C(O)c1cncc(-c2cnc3[nH]cc(-c4ccnn4CC(F)(F)F)c3c2)c1 (stereo not drawn) | > 0.5 µM | > 1 µM | > 1 µM
COc1ccccc1-c1c[nH]c2ncc(-c3cnc(N)c(C(O)C(=O)N(C)C)c3)cc12 (stereo not drawn) | < 0.05 µM | < 1 µM | < 1 µM
CN(C)C(=O)C(O)c1cncc(-c2cnc3[nH]cc(-c4ccno4)c3c2)c1 (stereo not drawn) | < 0.05 µM | > 1 µM | > 1 µM
CN(C)C(=O)C(O)c1cncc(-c2cnc3[nH]cc(-c4ccnn4CCO)c3c2)c1 (stereo not drawn) | 0.05 to 0.5 µM | > 1 µM | > 1 µM
COc1ccccc1-c1c[nH]c2ncc(-c3cncc(C(O)C4CC4)c3)cc12 (stereo not drawn) | < 0.05 µM | < 1 µM | < 1 µM
COc1ccccc1-c1c[nH]c2ncc(-c3cncc(C(O)CC(C)C)c3)cc12 (stereo not drawn) | < 0.05 µM | < 1 µM | < 1 µM
CN(C)C(=O)C(O)c1cncc(-c2cnc3[nH]cc(-c4cnc(N)s4)c3c2)c1 (stereo not drawn) | < 0.05 µM | > 1 µM | > 1 µM
CN(C)C(=O)C(O)c1cc(-c2cnc3[nH]cc(-c4ccccc4F)c3c2)cnc1N (stereo not drawn) | < 0.05 µM | < 1 µM | < 1 µM
CN(C)C(=O)C(O)c1cncc(-c2cnc3[nH]cc(-c4ccnn4-c4ccccc4)c3c2)c1 (stereo not drawn) | < 0.05 µM | < 1 µM | > 1 µM
Cc1n[nH]cc1-c1c[nH]c2ncc(-c3cncc(C(O)C(=O)N(C)C)c3)cc12 (stereo not drawn) | < 0.05 µM | > 1 µM | > 1 µM
Cc1n[nH]c(C)c1-c1c[nH]c2ncc(-c3cncc(C(O)C(=O)N(C)C)c3)cc12 (stereo not drawn) | < 0.05 µM | > 1 µM | > 1 µM
COc1ccccc1-c1c[nH]c2ncc(-c3cncc(C(O)C(N)=O)c3)cc12 (stereo not drawn) | < 0.05 µM | > 1 µM | > 1 µM
CN(C)C(=O)C(O)c1cncc(-c2cnc3[nH]cc(-c4ccccc4OC4CC4)c3c2)c1 (stereo not drawn) | < 0.05 µM | < 1 µM | < 1 µM
COc1ccccc1-c1n[nH]c2ncc(-c3cccc(CO)c3)cc12 | > 0.5 µM | < 1 µM | < 1 µM
COc1ccccc1-c1n[nH]c2ncc(-c3cccc(CO)n3)cc12 | < 0.05 µM | < 1 µM | > 1 µM

Second part, led by results:

IC50 [1] | Structure (SMILES) | GI50 (Ba/F3 cells, ABL1 WT) | GI50 (Ba/F3 cells, ABL1 T315I)
< 0.05 µM | COC(=O)C1=C(C)NC(=O)NC1c1cccc(-c2cnc3[nH]cc(-c4ccccc4OC)c3c2)c1 (stereo not drawn) | > 1 µM | > 1 µM
< 0.05 µM | COc1ccccc1-c1c[nH]c2ncc(-c3cccc(C4NC(=O)NC(C)=C4C(=O)N(C)C)c3)cc12 (stereo not drawn) | > 1 µM | > 1 µM
< 0.05 µM | COc1ccccc1-c1n[nH]c2ncc(-c3cccc(C(O)C(=O)N(C)CCN(C)C)c3)cc12 (stereo not drawn) | < 1 µM | < 1 µM
< 0.05 µM | CCN(CC)CCN(CC)C(=O)C(O)c1cccc(-c2cnc3[nH]nc(-c4ccccc4OC)c3c2)c1 (stereo not drawn) | < 1 µM | < 1 µM
< 0.05 µM | COc1ccccc1-c1n[nH]c2ncc(-c3cccc(C(O)C(=O)N4CCC(O)C4)c3)cc12 (stereo not drawn) | > 1 µM | > 1 µM
< 0.05 µM | CN(C)C(=O)C(O)c1cncc(-c2cnc3[nH]cc(-c4ccccc4)c3c2)c1 (stereo not drawn) | < 1 µM | < 1 µM
< 0.05 µM | Cc1cccc(-c2c[nH]c3ncc(-c4cncc(C(O)C(=O)N(C)C)c4)cc23)c1 (stereo not drawn) | < 1 µM | < 1 µM
< 0.05 µM | CN(C)C(=O)C(O)c1cncc(-c2cnc3[nH]cc(-c4cccc(C(F)(F)F)c4)c3c2)c1 (stereo not drawn) | > 1 µM | > 1 µM
< 0.05 µM | COc1ccc(-c2c[nH]c3ncc(-c4cncc(C(O)C(=O)N(C)C)c4)cc23)cc1 (stereo not drawn) | > 1 µM | > 1 µM
< 0.05 µM | CN(C)C(=O)C(O)c1cncc(-c2cnc3[nH]cc(-c4cccc(F)c4F)c3c2)c1 (stereo not drawn) | < 1 µM | < 1 µM
< 0.05 µM | CN(C)C(=O)C(O)c1cncc(-c2cnc3[nH]cc(-c4ccc5c(c4)OCO5)c3c2)c1 (stereo not drawn) | < 1 µM | > 1 µM
< 0.05 µM | CN(C)C(=O)C(O)c1cncc(-c2cnc3[nH]cc(-c4ccc(F)cc4)c3c2)c1 (stereo not drawn) | > 1 µM | > 1 µM
< 0.05 µM | CN(C)C(=O)C(O)c1cncc(-c2cnc3[nH]cc(-c4ccc(CO)cc4)c3c2)c1 (stereo not drawn) | > 1 µM | > 1 µM
< 0.05 µM | CN(C)C(=O)C(O)c1cncc(-c2cnc3[nH]cc(-c4ccc(C(N)=O)cc4)c3c2)c1 (stereo not drawn) | > 1 µM | > 1 µM
< 0.05 µM | CN(C)C(=O)C(O)c1cncc(-c2cnc3[nH]cc(-c4ccccc4F)c3c2)c1 (stereo not drawn) | < 1 µM | < 1 µM
< 0.05 µM | CCc1ccccc1-c1c[nH]c2ncc(-c3cncc(C(O)C(=O)N(C)C)c3)cc12 (stereo not drawn) | < 1 µM | < 1 µM
< 0.05 µM | CN(C)C(=O)C(O)c1cncc(-c2cnc3[nH]cc(-c4ccccc4OC(F)(F)F)c3c2)c1 (stereo not drawn) | < 1 µM | > 1 µM
< 0.05 µM | CSc1ccccc1-c1c[nH]c2ncc(-c3cncc(C(O)C(=O)N(C)C)c3)cc12 (stereo not drawn) | < 1 µM | < 1 µM
< 0.05 µM | COc1ncccc1-c1c[nH]c2ncc(-c3cncc(C(O)C(=O)N(C)C)c3)cc12 (stereo not drawn) | < 1 µM | > 1 µM
< 0.05 µM | CN(C)C(=O)C(O)c1cncc(-c2cnc3[nH]cc(-c4ccccc4Cl)c3c2)c1 (stereo not drawn) | < 1 µM | < 1 µM
< 0.05 µM | CN(C)C(=O)C(O)c1cncc(-c2cnc3[nH]cc(-c4cccc(N(C)C)c4)c3c2)c1 (stereo not drawn) | < 1 µM | > 1 µM
